Reference: patent publication US4069316A, “Method for producing antibiotic T-42082 and antibiotic T-42082” (Takeda Chemical Industries, Ltd., priority 1976, dated 1978)

Tested on: Eimeria tenella
Experiment: Experimental 3: anticoccidial effect in chicks inoculated with drug-resistant wild strain
Description: The following experiment was carried out with a wild strain resistant to the conventional anticoccidial drugs.
The oocysts, predominantly of Eimeria tenella, obtained from a wild strain were used to inoculate chicks at a rate of 10×10^5 sporulated oocysts per bird. […] The battery test procedure was repeated.

NC(=NN=Cc1ccc(Cl)cc1)NN=Cc1ccc(Cl)cc1 [Lobenidine] was tested, and the “At end of experiment/At start of experiment (No. of birds)” value (33.0 ppm) was 3/3, the “Relative Weight gain” value (33.0 ppm) was 26.4% and the “The pathological change of caecum: birds scored +” value (33.0 ppm) was 0. For the same compound, the “The pathological change of caecum: birds scored ++” value (33.0 ppm) was 0, the “The pathological change of caecum: birds scored +++” value (33.0 ppm) was 0 and the “The pathological change of caecum: birds scored ++++” value (33.0 ppm) was 3. For the same compound, the “The pathological change of caecum: birds scored -” value (33.0 ppm) was 0, the “No. of blood drops/per bird” value (33.0 ppm, day 4) was 2.3 and the “No. of blood drops/per bird” value (33.0 ppm, day 5) was 9.3. For the same compound, the No. of deaths (33.0 ppm, day 5) was 0, the “No. of blood drops/per bird” value (33.0 ppm, day 6) was 9.3 and the No. of deaths (33.0 ppm, day 6) was 0. The “No. of blood drops/per bird” value (33.0 ppm, day 7) was 6.0, the No. of deaths (33.0 ppm, day 7) was 0 and the No. of deaths (33.0 ppm, day 8) was 0. The “At end of experiment/At start of experiment (No. of birds)” value (66.0 ppm) was 3/3, the “Relative Weight gain” value (66.0 ppm) was 53.4% and the “The pathological change of caecum: birds scored +” value (66.0 ppm) was 0. The “The pathological change of caecum: birds scored ++” value (66.0 ppm) was 0, the “The pathological change of caecum: birds scored +++” value (66.0 ppm) was 0 and the “The pathological change of caecum: birds scored ++++” value (66.0 ppm) was 3. The “The pathological change of caecum: birds scored -” value (66.0 ppm) was 0, the “No. of blood drops/per bird” value (66.0 ppm, day 4) was 0.6 and the “No. of blood drops/per bird” value (66.0 ppm, day 5) was 8.0. For the same compound, the No. of deaths (66.0 ppm, day 5) was 0, the “No. of blood drops/per bird” value (66.0 ppm, day 6) was 10.0 and the No. of deaths (66.0 ppm, day 6) was 0. For the same compound, the “No. of blood drops/per bird” value (66.0 ppm, day 7) was 4.6, the No. of deaths (66.0 ppm, day 7) was 0 and the No. of deaths (66.0 ppm, day 8) was 0.
